Read-outs that look alike come from different tables or passages of the source. Bounds are passed on as bounds.

For orientation: IC50 means the concentration that inhibits the measured activity by half.

In data set [1] the test system is L. infantum chagasi (WT) promastigotes, strain BH400. As to the kind of experiment: Antileishmanial activity assay, promastigote growth (absorbance 600 nm), wild-type strain. To be noted: 72 h, 25 °C. Format: cell-based, Leishmania infantum chagasi. As for the experimental part:
(§1) Leishmania (Leishmania) amazonensis (strain MHOM/BR/1989/BA199) and Leishmania (Leishmania)infantum chagasi (strain MCAN/BR/2002/BH400) promastigotes were maintained in minimum essential culture medium (α-MEM) (Gibco, Invitrogen, Grand Island, NY, USA) supplemented with 10% (v/v) heat inactivated fetal calf serum (Cultilab, Campinas, SP, Brazil), […] kanamycin, […] ampicillin, 2 mM L-glutamine, 5 mg/mL hemin, 5 mM biopterin, (Sigma-Aldrich), pH 7.0 and incubated at 25 °C. L. amazonensis and L. infantum chagasi were selected for Sb(III) resistance as previously decribed. The Sb(III)-resistant mutants L. amazonensis BA199Sb2700.2 and L. infantum chagasi BH400Sb2700.2 were selected in 25 cm^2 flasks containing 5 mL of α-MEM in the presence of increasing Sb(III) concentrations up to 2,700 μM.
(§2) Complexes 1 and 2 were evaluated in vitro for their activity against both Sb(III)-sensitive and -resistant Leishmania parasites. Log-phase L. amazonensis and L. infantum chagasi promastigotes (1 × 10^6 parasites/mL) were seeded in 24-wells cell culture plates with 1.5 mL of α-MEM, incubated under shaking at 25 °C during 72 h in the presence of several concentrations of complex 1 or 2. Controls were performed using cultures in the presence of potassium antimonyl tartrate, SbCl3, BiCl3 and dppz itself. Non-treated parasites were established for growth comparison. Stock solutions of dppz, its complexes, SbCl3 and BiCl3 were dissolved in DMSO (5 M) and diluted in α-MEM cell culture medium to obtain the range of tested concentrations. […] For drug susceptibility assay, Leishmania growth curves were constructed by measuring absorbance at 600 nm. […] All experiments were done at least three times as independent experiments performed in triplicate.
(§3) The IC50 and CC50 values were calculated by nonlinear regression using the software GraphPad Prism 5.0. The acceptable level of significance was 95% (p < 0.05).

Data set [2] deals with L. infantum chagasi (SbR) promastigotes, BH400Sb2700.2. Kind of data set: Antileishmanial activity assay, promastigote growth, Sb-resistant mutant. It is filed as cell-based, Leishmania infantum chagasi. To be noted: 72 h, read-out: IC50 (μM) ± SEM. The protocol: as §1, §2, §3
The test system of data set [3] is L. amazonensis (WT) promastigotes, strain BA199. Kind of data set: Antileishmanial activity assay, promastigote growth, wild-type strain. It is filed as cell-based, Leishmania amazonensis. To be noted: 72 h, 25 °C. The protocol: as §1, §2, §3
Data set [4] relates to L. amazonensis (SbR) promastigotes, BA199Sb2700.2. As to the kind of experiment: Antileishmanial activity assay, promastigote growth, Sb-resistant mutant. Format: cell-based, Leishmania amazonensis. To be noted: 72 h, read-out: IC50 (μM) ± SEM. The protocol:
as §1, §2, §3

The nature of data set [5]: Cytotoxicity assay against peritoneal macrophages (MTT). To be noted: mouse peritoneal macrophages, MTT, 24 h. It is filed as cell-based, mouse. The protocol:
(§4) Macrophages were obtained by lavage of peritoneal cavity of mice with 10 mL cold RPMI without FBS. After washing, the cell suspension (4.0 × 10^6/mL) was seeded (0.1 mL) in 96-well flat bottom plates. Macrophages were allowed to adhere for 2 h and non-adherent cells were removed by washing with RPMI. Then, the studied compounds were added to the wells at concentrations ranging from 1 to 20 μM and the cells were further cultured in RPMI-1640 supplemented with 10% FBS for 24 h at 37 °C in a humidified 5% CO2 atmosphere. Thereafter, the medium was replaced with fresh RPMI containing 0.5 mg/mL of MTT and the plates were incubated for additional 4 h. Supernatants were aspirated and the formazan crystals formed were dissolved in 100 μL of DMSO. After 15 min of incubation at room temperature, absorbance of solubilized MTT formazan product was spectrophotometrically measured at 570 nm.
as §3

Data set [6] has as its system mouse peritoneal macrophages. The data set is described as above. Format: cell-based. As for the experimental part:
as §4, §3

Data set [7] deals with Leishmania promastigotes. As to the kind of experiment: microbe, parasite or virus in culture. To be noted: for concentration in whose presence Sb-resistant lines failed to grow: L. infantum chagasi BH400 Sb2700.2 and L. amazonensis BA199 Sb2700.2. Format: cell-based, Leishmania infantum chagasi and Leishmania amazonensis. The protocol:
as §1, §2

The nature of data set [8]: n-Octanol/water partition coefficient, Shake-Flask method. Format: physicochemical. To be noted: phosphate buffer pH 6.8. The protocol:
Then, three different partition system were prepared by adding these solutions to water-saturated octanol, in octanol/water volume ratios, 1:1, 1:2 and 2:1 in duplicate. The mixtures were vortexed for 10 min and then centrifuged for 5 min. The partition coefficients were determined using the absorbance of complexes 1 and 2. Calculated dppz log P value was obtained from the program ALOGPS 2.143 available on line.

Data set [9] is described as follows: Stability of the complexes by UV absorption spectroscopy. It is filed as physicochemical. To be noted: 10 µmol·L^−1 in DMSO, DMSO-containing water and octanol, 0 to 4 h. The protocol: The stability of the complexes was checked by UV absorption spectroscopy. For this purpose, UV absorption spectra were registered at different time intervals (from 0 to 4 h) for dppz and complexes 1 and 2 at 10 µmol·L^−1 in DMSO, DMSO-containing water and octanol.

Where [10] appears, read: L. infantum chagasi (SbR) promastigotes, 25 °C.
[11] abbreviates: L. amazonensis (SbR) promastigotes, 25 °C.
The mark [12] stands for this setting: listed as dppzBiCl3, read-out: IC50 (μM) ± SEM.
The mark [13] stands for this setting: listed as dppzSbCl3, read-out: IC50 (μM) ± SEM.

Take `c1ccc2nc3c4cccnc4c4ncccc4c3nc2c1` [Dppz, dipyrido[3,2-a:2',3'-c]phenazine]: the IC50 was 0.81 ± 0.04 µM in data set [1] (Leishmania infantum, read-out: IC50 (μM) ± SEM); 1.86 ± 0.08 µM in [2] (Leishmania infantum); greater than 2 µM in [3] (Leishmania amazonensis, read-out: IC50 (μM) ± SEM); 2 ± 0.05 µM in data set [4] (Leishmania amazonensis); 0.8 to 2 µM in data set [7] (Leishmania, read-out: IC50 range over strains). The CC50 at 24 h in data set [5] came to 12.5 µM. Besides, the “SI: selective index” value in data set [6] (ratio between CC50 in murine macrophages and IC50 in L. infantum chagasi (WT)) is on record as 15.4.

`O=C([O-])[C@H]([O-])[C@@H]([O-])C(=O)[O-].O=C([O-])[C@H]([O-])[C@@H]([O-])C(=O)[O-].[K+].[K+].[Sb+3].[Sb+3]` [TA, potassium antimonyl tartrate]: the IC50 in data set [1] (read-out: IC50 (μM) ± SEM) is 100 ± 3 µM; in data set [2] (setting [10]), greater than 2700 µM; in data set [3] (read-out: IC50 (μM) ± SEM), 83 ± 1 µM; in data set [4] (setting [11]), greater than 2700 µM.

As for `[Cl][Sb]([Cl])[Cl]` [SbCl3, antimony trichloride], the IC50 in data set [1] (read-out: IC50 (μM) ± SEM) was 341 ± 2 µM; in data set [2] (setting [10]), 462 ± 3 µM; in data set [3] (read-out: IC50 (μM) ± SEM) it was 362 ± 2 µM; in data set [4] (setting [11]), 1503 ± 2 µM.

For [Bi(dppz)Cl3] [complex 2], the IC50 in [1] (setting [12]) was 0.59 ± 0.01 µM; in data set [1] (read-out: IC50 (μM) ± SEM), roughly 0.6 µM; in data set [2] (setting [10]), 0.61 ± 0.02 µM; in data set [3] (setting [12]) it was 1.07 ± 0.03 µM; in data set [3] (read-out: IC50 (μM) ± SEM), roughly 1 µM; in data set [4] (setting [11]) it was 1.12 ± 0.01 µM. In addition, in data set [8], the “log P (octanol/water partition coefficient)” value is reported as 0.98 ± 0.17. The “UV absorption spectra as a function of time (stability)” value in data set [9] is listed as “did not show significant changes as a function of time”. Also, the “concentration in whose presence Sb-resistant lines failed to grow” value in [7] is no more than 1.12 µM.

For the molecule `[Cl][Bi]([Cl])[Cl]` [BiCl3, Bi(III) chloride], the IC50 is 563 ± 2 µM in [1] (read-out: IC50 (μM) ± SEM), greater than 500 µM in [2] (setting [10]), 621 ± 2 µM in data set [3] (read-out: IC50 (μM) ± SEM) and greater than 500 µM in data set [4] (setting [11]).

For the molecule [Sb(dppz)Cl3] [complex 1], the half-inhibitory concentration (IC50) is 0.62 ± 0.01 µM in [1] (setting [13]); roughly 0.6 µM in data set [1] (read-out: IC50 (μM) ± SEM); 0.57 ± 0.01 µM in data set [2] (setting [10]); 0.95 ± 0.02 µM in data set [3] (setting [13]); roughly 1 µM in data set [3] (read-out: IC50 (μM) ± SEM); 0.92 ± 0.02 µM in [4] (setting [11]). Moreover, the CC50 in data set [6] (read-out: CC50: concentration of dppz which is cytotoxic against 50% of macrophages, mouse peritoneal macrophages, MTT, 24 h) was determined as 7 µM. The “log P (octanol/water partition coefficient)” value in data set [8] is recorded as 0.94 ± 0.24. Further, the “UV absorption spectra as a function of time (stability)” value in data set [9] was “did not show significant changes as a function of time”. Besides, the “concentration in whose presence Sb-resistant lines failed to grow” value in [7] was no more than 1.12 µM.

The values above are taken from PMC6268262, “Improved Antileishmanial Activity of Dppz through Complexation with Antimony(III) and Bismuth(III): Investigation of the Role of the Metal” (Molecules, 2012).
